Measured values from patent US20020002269A1, “ARTEMIN, A NEUROTROPHIC FACTOR” (priority 1998, published 2002).

Columns and labels:
[1] = test system: SH-SY5Y neuroblastoma cell line; assay: Differentiation of SH-SY5Y neuroblastoma cells; format: cell-based; settings: 50 ng/ml, three days after factor addition, FIG. 8C
Procedure: In one experiment, cells from the SH-SY5Y neuroblastoma cell line were plated at 2×10^5 cells/ml/well in 12-well tissue culture plates. After one day in culture cells were either left untreated (Cn) or stimulated with 50 ng/ml artemin (ART) or 10 μM retinoic acid (RA), a known inducer of differentiation of SH-SYSY cells. Three days after factor addition, differentiation was assessed and cells were photographed.

[2] = test system: NLF cells transformed with GFRα2; assay: Ga14-Elk/Ga14-Luc reporter in NLF neuroblastoma cells transformed with GFRα2; format: cell-based; settings: factor for 24 hours, low-serum medium, FIG. 10B
Procedure: Thus, to directly test which receptor combinations can form functional receptors for artemin, expression plasmids for the individual GFRA coreceptors together with the Ga14-Elk/Ga14-Luc reporter system were transiently transformed into fibroblasts that stably express RET. […]
NLF neuroblastoma cells, which naturally express GFRα2/RET (Tansey et al., submitted), or the RET-3T3 cells were plated at 85,000 cells/well in 12-well plates, and cotransfected with the reporter plasmids Ga14-Luc and CMV-Ga14-Elk (250 ng/well and 50 ng/well, respectively), CMV-lacZ (50 ng/well) for transfection normalization, one of the CMV-GFRA expression plasmids (500 ng/well), and pBluescript (650 ng/well) as carrier for a total of 1.5 μg DNA/well using the Superfect reagent (Qiagen) according to the manufacturer's instructions. […] Measurement of luciferase and β-galactosidase activity was measured using a luminometer and performed as described (Svaren et al., EMBO J 17:6010-6019, 1998). The average luciferase activity of duplicate samples was normalized to β-galactosidase activity of the cotransformed lacZ reporter, and fold activation was calculated by dividing the normalized activity in factor-treated cells by that in the no treatment control.

[3] = test system: dopaminergic neurons from the rat embryonic ventral midbrain; assay: Survival of TH+ dopaminergic ventral midbrain neurons; format: cell-based; settings: E14 rat, 50 ng/ml, 3 days in culture, FIG. 7F
Procedure: Embryonic day 14 ventral mesencephalon cultures were prepared by removing the entire mesencephalon into cold Leibovitz's L15+6 mg/ml glucose and dissecting the tissue while keeping it on ice. Following dissection, the tissue was digested in a mixture of dispase (1 mg/ml, Sigma) and collagenase (1 mg/ml, Worthington Biochemical) for 25 min. Tissue was then washed twice with modified N2 media and triturated 35 times. Cell density and viability was assessed using a hemocytometer to count trypan blue excluding cells. Cells were plated at 20,000 cells/well on 8-well chamber slides (coated with 125 ng/ml poly-D-lysine and 25 ng/ml laminin) in serum-free medium consisting of DME/Hams F12 (1:1), 1 mg/ml BSA, 5 μM insulin, 10 nM progesterone, 100 μM putrescine, 30 nM selenium, 10 ng/ml rat transferrin, 100 U/ml penicillin, 100 U/ml streptomycin. Factors were added within 15 min of plating. After 3 days in culture, the cells were fixed, stained for tyrosine hydroxylase, and the number of tyrosine hydroxylase staining (TH+) neurons were counted. The results from two independent experiments are shown in FIG. 7F as the percentage of surviving TH+ neurons over control.

[4] = biological target: T1, GFRα3-Fc (Homo sapiens, UniProt O60609); assay: Direct binding of soluble GFRα3-Fc receptor body to plate-coated ligand; settings: ligand coated at 325 ng/ml, absence of RET, FIG. 9E
T1 construct: purchased R&D Systems
Procedure: To investigate which if any of the known coreceptor(s) artemin can utilize to activate RET, its ability to directly bind to soluble Fc-fusion forms of GFRα1, GFRα2, or GFRα3 was assessed. GFRα1-Fc, GFRα2-Fc and GFRα3-Fc fusion proteins were obtained from R&D Systems. Binding assays were performed similarly to assays previously described (Sanicola et al., Proc. Natl. Acad. Sci., USA 94:6238-6243, 1997). Recombinant GDNF, neurturin, artemin, persephin, or purified bovine serum albumin (BSA; Pierce) were coated to Nunc-Immuno MaxiSorp microtiter plates at 325 ng/ml in TBS (10 mM Tris-HCl pH 7.5, 150 mM NaCl) for 1 hour at 25° C. Plates were washed (3× in TBS/0.03% Tween-20), and then blocked (blocking solution: TBS/1% BSA) for 1 hr at 25° C. Receptor bodies diluted in blocking solution were added and incubated for 2 hr at 25° C., washed 5X, then incubated with 1:10,000 dilution of HRP-conjugated anti-human Fc antibodies in blocking solution (Jackson Immunoresearch) for 45 minutes at 25° C. […] The reaction was stopped by adding an equal volume of 0.5M H2SO4, and color was measured in a plate reader at 450 nm. Non-specific binding of receptor bodies to the plates was measured in BSA coated wells, and this binding was subtracted from all other measurements.

T1 sequence (O60609 with tags, fused parts or gaps limits assumed): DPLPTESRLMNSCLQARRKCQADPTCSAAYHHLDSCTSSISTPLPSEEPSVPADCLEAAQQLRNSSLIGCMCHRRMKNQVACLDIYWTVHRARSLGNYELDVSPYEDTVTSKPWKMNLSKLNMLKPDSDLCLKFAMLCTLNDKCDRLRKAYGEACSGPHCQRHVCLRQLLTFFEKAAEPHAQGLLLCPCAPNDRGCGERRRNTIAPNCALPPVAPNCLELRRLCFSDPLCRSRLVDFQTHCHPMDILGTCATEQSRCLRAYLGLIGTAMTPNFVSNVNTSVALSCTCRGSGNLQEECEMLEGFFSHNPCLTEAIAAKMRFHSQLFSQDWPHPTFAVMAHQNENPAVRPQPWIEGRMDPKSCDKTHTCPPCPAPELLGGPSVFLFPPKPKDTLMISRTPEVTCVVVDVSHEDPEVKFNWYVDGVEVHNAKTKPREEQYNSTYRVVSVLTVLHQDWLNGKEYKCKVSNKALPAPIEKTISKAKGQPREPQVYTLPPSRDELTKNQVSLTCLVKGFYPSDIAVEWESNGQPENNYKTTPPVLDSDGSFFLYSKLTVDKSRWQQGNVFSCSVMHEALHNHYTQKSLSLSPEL

artemin: recombinant mature human artemin (FIG. 3A, SEQ ID NO:3) with 8-histidine tag, produced in E. coli; GDNF family neurotrophic factor
differentiation (neurite outgrowth, neuronal morphology) of SH-SY5Y cells [1]: induced strong differentiation responses | response of NLF cells transformed with GFRα2 (luciferase reporter) [2]: not GFRα2 | survival of TH+ dopaminergic midbrain neurons [3]: supported the survival of dopaminergic midbrain neurons | direct binding of GFRα3-Fc [4]: able to bind to artemin
